Measurements from patent EP4563571A1, “PRMT5 INHIBITORS” (Beijing Earthwise Technology Co., Ltd., priority 2022, dated 2024).

These compounds were tested on HCT116^MTAP Deletion cells (assay: Anti-proliferation assay on cells (Cell-Titer Glo, 10 days)). Settings: 240 h, HCT116^MTAP Deletion cells, 10 days incubation, CTG readout; read-out: HCT116^MTAP Deletion GI50.
Format: cell-based
Experimental: HCT116^MTAP Deletion cells were from Pharmaron (China); HCT116 cells were from ATCC; McCoy's 5A medium was purchased from Invitrogen (USA); penicillin-streptomycin and fetal bovine serum were purchased from Gibco (USA); a 384-well plate was purchased from PerkinElmer (USA); and Cell-Titer Glo reagent was purchased from Promega (USA).
Compound dissolution: All the compounds were dissolved in dimethyl sulfoxide (DMSO) and then stored. The compounds were stored at room temperature in a dry condition for 3 months for short term storage or at -20 °C for long term storage.
Cell culture and passaging
The cells were cultured strictly in accordance with ATCC requirements. The cell culture medium (McCoy's 5A medium + 10% fetal bovine serum + 1% penicillin + streptomycin) was transferred to a 15 mL centrifuge tube and centrifuged at 1000 rpm for 5 min. The supernatant was removed. The cells were resuspended with complete culture medium, inoculated into a culture dish at the required density, and cultured in an incubator at 37 °C, 95% humid air, and 5% carbon dioxide. The culture medium was replenished or the cells were passaged every 2-3 days depending on the cell growth condition.
Cell proliferation activity assay
When the confluency of cells in the culture dish reached about 90%, the cells were washed twice with PBS, and then treated with trypsin to become single cells. The cells were counted, and 40µl of the cells was inoculated into each well of a 384-well plate (50 cells/well). The plate was equilibrated at 37 °C and 5% carbon dioxide for 10 to 15 minutes. The compounds were injected into the 384-well plate using Echo550, and positive control and negative control (0.1% DMSO) were set up. Each compound was subjected to a 3-fold dilution, resulting in 10 concentration gradients, in duplicate, and the content of DMSO was 0.1%. The 384-well plate was incubated in a cell culture incubator for 10 days.
Then, 40 µl of cell proliferation assay reagent (CTG) was added to the 384-well plate, and the plate was shaken to mix well. Then, the 384-well plate was incubated at 37 °C and 5% carbon dioxide in the dark for 30 minutes. The data were read using the Envision multifunctional microplate reader. […] According to the different drug concentrations and their corresponding inhibition rates, the GI50 curve was drawn using GraphPad 8.0 software. The data were analyzed, and the final IC50 value was obtained.
Work on `Cc1cc(NC(=O)C(=O)N(Cc2ccc(C(F)(F)F)cn2)C(C)C(C)C)cnc1N` (stereo not shown) [Example 86] yielded a GI50 of 10 to 100 nM.
Compound `CN(C(=O)C(=O)Nc1cnc(N)c2c1cnn2C)C1COCc2nc(-c3ccccc3)ccc21` (stereo not shown) [Example 219] has a GI50 of less than 10 nM.
Compound `CN(C(=O)C(=O)Nc1cnc(N)c2c1cnn2C)C1COCc2cc(N3CCOCC3)ccc21` (stereo not shown) [Example 175] has a GI50 of 10 to 100 nM.
Work on `COC(=O)N1CC=C(c2ccc(CN(C(=O)C(=O)Nc3cnc(N)c(C)c3)[C@H](C)c3ncccn3)nc2)CC1` [Example 84] yielded a GI50 of 10 to 100 nM.
`CN(C(=O)C(=O)Nc1cnc(N)c2c1cnn2C)C1COCc2nc(-c3ccccc3F)ccc21` (stereo not shown) [Example 225] was tested, and the GI50 was less than 10 nM.
`CN(C(=O)C(=O)Nc1cnc(N)c2c1cnn2C)C1CCOc2cc(C(F)(F)F)ccc21` (stereo not shown) [Example 127] gave a GI50 of 10 to 100 nM.
With `Cc1ncc(-c2ccc3c(c2)COCC3N(C)C(=O)C(=O)Nc2cnc(N)c3c2cnn3C)o1` (stereo not shown) [Example 207] the GI50 was less than 10 nM.
For `CCc1ccc2c(c1)OCC2N(C)C(=O)C(=O)Nc1cnc(N)c2c1cnn2C` (stereo not shown) [Example 206], the GI50 was less than 10 nM.
`CN(C(=O)C(=O)Nc1cnc(N)c2c1cnn2C)C1COCc2cc(C(F)(F)F)cnc21` (stereo not shown) [Example 114] showed a GI50 of 100 to 1000 nM.
Compound `CCC(C)N(Cc1ccc(C(F)(F)F)nc1)C(=O)C(=O)Nc1cnc(N)c(C)c1` (stereo not shown) [Example 57] has a GI50 of 100 to 1000 nM.
In the case of `CCC(C)N(Cc1ccc(C(F)(F)F)cn1)C(=O)C(=O)Nc1cnc(N)c2c1COC2` (stereo not shown) [Example 54], the GI50 is reported as 10 to 100 nM.
`CCCN(C(=O)C(=O)Nc1cnc(N)c2c1cnn2C)C1COCc2cc(C(F)(F)F)ccc21` (stereo not shown) [Example 97] was tested, and the GI50 was less than 10 nM.
In the case of `CN(C(=O)C(=O)Nc1cnc(N)c2c1cnn2C)C1COc2cc(C3CCOCC3)ccc21` (stereo not shown) [Example 190], the GI50 is reported as 10 to 100 nM.
With `CN(C(=O)C(=O)Nc1cnc(N)c2c1cnn2C)C1COCc2cc(C3CCOCC3)ccc21` (stereo not shown) [Example 144] the GI50 was 10 to 100 nM.
With `COc1ncc(NC(=O)C(=O)N(C)C2COCc3cc(C(F)(F)F)ccc32)cc1C(N)=O` (stereo not shown) [Example 143] the GI50 was 100 to 1000 nM.
`CCC(C)N(Cc1ccc(S(F)(F)(F)(F)F)cc1)C(=O)C(=O)Nc1cnc(N)c(C)c1` (stereo not shown) [Example 69] gave a GI50 of 100 to 1000 nM.
`COc1ncc(NC(=O)C(=O)N(C)C2COCc3cc(C4=CCOCC4)ccc32)cc1C(N)=O` (stereo not shown) [Example 166] gave a GI50 of 100 to 1000 nM.
`CC#Cc1ccc2c(c1)OCC2N(C)C(=O)C(=O)Nc1cnc(N)c2c1cnn2C` (stereo not shown) [Example 240] was tested, and the GI50 was 10 to 100 nM.
In the case of `CC(c1cscn1)N(Cc1ccc(C(F)(F)F)cn1)C(=O)C(=O)Nc1cnc(N)c2c1COC2` (stereo not shown) [Example 68], the GI50 is reported as 10 to 100 nM.
With `CN(C(=O)C(=O)Nc1cnc(N)c2c1cnn2C)C1COCc2cc(C3(F)CNC3)ccc21` (stereo not shown) [Example 203] the GI50 was 10 to 100 nM.
`CC(C)CN(C(=O)C(=O)Nc1cnc(N)c2c1cnn2C)C1COc2cc(C(F)(F)F)ccc21` (stereo not shown) [Example 122] showed a GI50 of 10 to 100 nM.
Compound `CN(C(=O)C(=O)Nc1cnc(N)c2c1cnn2C)C1COc2cc(-c3nncn3C3CC3)ccc21` (stereo not shown) [Example 228] has a GI50 of 100 to 1000 nM.
`CN(C(=O)C(=O)Nc1cnc(N)c2c1cnn2C)C1COc2cc(-c3ccc(C(F)(F)F)cn3)ccc21` (stereo not shown) [Example 177] showed a GI50 of 10 to 100 nM.
`CN(C(=O)C(=O)Nc1cnc(N)c2c1cnn2C)C1CCOC1` (stereo not shown) [Example 126] was tested, and the GI50 was 1000 to 10000 nM.
For `CC1OCc2c(NC(=O)C(=O)N(Cc3ccc(C(F)(F)F)cn3)Cc3ccnc4[nH]ccc34)cnc(N)c21` (stereo not shown) [Example 81], the GI50 was less than 10 nM.
`Cn1ncc2c(NC(=O)C(=O)NC3COCc4cc(C(F)(F)F)ccc43)cnc(N)c21` (stereo not shown) [Example 119] gave a GI50 of 1000 to 10000 nM.
`CCC(C)N(Cc1ccc(Cl)cn1)C(=O)C(=O)Nc1cnc(N)c(C)c1` (stereo not shown) [Example 61] gave a GI50 of 100 to 1000 nM.
With `CCC(C)N(Cc1ccc(OC(C)C)cn1)C(=O)C(=O)Nc1cnc(N)c(C)c1` (stereo not shown) [Example 80] the GI50 was 10 to 100 nM.
With `CN(C(=O)C(=O)Nc1cnc(N)c2c1cnn2C)C1COCc2c1cccc2C(F)(F)F` (stereo not shown) [Example 148] the GI50 was 10 to 100 nM.

Same assay, conditions: HCT116^MTAP Deletion cells, 10 days incubation, CTG readout; read-out: HCT116^MTAP Deletion GI50
Work on `CC1OCc2c(NC(=O)C(=O)N(C)C3COCc4cc(C(F)(F)F)ccc43)cnc(N)c21` (single isomer, unassigned) [Example 146-P2] yielded a GI50 of 10 to 100 nM.
Compound `CN(C(=O)C(=O)Nc1cnc(N)c2c1cnn2C)C1COCc2c1ccc(F)c2F` (stereo not shown) [Example 141-P2] has a GI50 of 100 to 1000 nM.
Compound `CN(C(=O)C(=O)Nc1cnc(N)c2c1cnn2C)C1COc2nc(C(F)(F)F)ccc21` (stereo not shown) [Example 159] has a GI50 of 100 to 1000 nM.
With `CN(C(=O)C(=O)Nc1cnc(N)c2c1cnn2C)C1COCc2c(F)cc(Cl)cc21` (racemic) [compound 155] the GI50 was 10 to 100 nM.
In the case of `CN(C(=O)C(=O)Nc1cnc(N)c2c1cnn2C)C1COCc2cc(C(F)(F)F)ccc21` (stereo not shown) [Example 48], the GI50 is reported as less than 10 nM.
For `Cc1cc(NC(=O)C(=O)N(Cc2ccc(C(F)(F)F)cn2)C(C)c2cscn2)cnc1N` (single isomer, unassigned) [Example 19-P2], the GI50 was 10 to 100 nM.
With `C[C@H](c1ncccn1)N(Cc1ccc(C(F)(F)F)cn1)C(=O)C(=O)Nc1cnc(N)c2ccncc12` [Example 32] the GI50 was 100 to 1000 nM.
`Cc1cc(NC(=O)C(=O)N(Cc2ccc(C#N)cn2)[C@H](C)c2ncccn2)cnc1N` [Example 28] gave a GI50 of 1000 to 10000 nM.
Work on `CN(C(=O)C(=O)Nc1cnc(N)c2c1cnn2C)C1COc2cc(-c3cnc(C4CC4)s3)ccc21` (stereo not shown) [Example 236] yielded a GI50 of less than 10 nM.
Work on `Cc1cc(N)ncc1NC(=O)C(=O)N(Cc1ccc(C(F)(F)F)cn1)[C@H](C)c1ncccn1` [Example 26] yielded a GI50 of 100 to 1000 nM.
For `CN(C(=O)C(=O)Nc1cnc(N)c2c1cnn2C)C1COc2cc(-c3ccnn3C3CC3)ccc21` (stereo not shown) [Example 212], the GI50 was less than 10 nM.
Compound `Cc1cc(NC(=O)C(=O)N(Cc2ccc(C(F)(F)F)cn2)CC2CCC2)cnc1N` [Example 16] has a GI50 of 10 to 100 nM.
`CN(C(=O)C(=O)Nc1cnc(N)c2c1cnn2C)C1COCc2cc(C3=CCC(F)(F)CC3)ccc21` (racemic) [compound 174] gave a GI50 of less than 10 nM.
Compound `CN(C(=O)C(=O)Nc1cnc(N)c2c1cnn2C)C1COc2cc(-c3cnn(C(F)(F)F)c3)ccc21` (stereo not shown) [Example 213] has a GI50 of less than 10 nM.
In the case of `CN(C(=O)C(=O)Nc1cnc(N)c2c1cnn2C)C1COCc2cc(C3=CCOCC3)ccc21` (stereo not shown) [Example 132-P2], the GI50 is reported as 10 to 100 nM.
`CN(C(=O)C(=O)Nc1cnc(N)c2c1cnn2C)C1COCc2cc(Br)ccc21` (racemic) [compound 182] was tested, and the GI50 was less than 10 nM.
In the case of `Cc1cc(NC(=O)C(=O)N(Cc2ccc(C3=CCOCC3)nn2)[C@H](C)c2ncccn2)cnc1N` [Example 42], the GI50 is reported as 100 to 1000 nM.
With `Cc1cc(NC(=O)C(=O)N(Cc2ccc(N3CCC(F)(F)C3)cn2)[C@H](C)c2ncccn2)cnc1N` [Example 29] the GI50 was 100 to 1000 nM.
For `C[C@H](c1ncccn1)N(Cc1ccc(C(F)(F)F)cn1)C(=O)C(=O)Nc1cnc(N)c(F)c1` [Example 22], the GI50 was 1000 to 10000 nM.
In the case of `C[C@H](c1ncccn1)N(Cc1ccc(C(F)(F)F)cn1)C(=O)C(=O)Nc1cnc(N)c2cncn12` [Example 38], the GI50 is reported as greater than 10000 nM.
`Cc1cc(/C=C/C(=O)N(Cc2ccc(C(F)(F)F)cn2)[C@H](C)c2ncccn2)cnc1N` [Example 6] was tested, and the GI50 was greater than 10000 nM.
`Cc1cc(NC(=O)C(=O)N(C)C2COCc3cc(C4=CCOCC4)ccc32)cnc1N` (racemic) [compound 162] showed a GI50 of 100 to 1000 nM.
`CN(C(=O)C(=O)Nc1cnc(N)c2c1cnn2C)C1COc2cc(-c3ccnn3C)ccc21` (racemic) [compound 192] showed a GI50 of less than 10 nM.
`Cn1ncc2c(NC(=O)C(=O)N(Cc3ccc(C(F)(F)F)cn3)CC3CC3)cnc(N)c21` [Example 43] was tested, and the GI50 was less than 10 nM.
Work on `CCC(C)N(Cc1ccc(C(F)(F)F)cn1)C(=O)C(=O)Nc1cnc(N)c2c1cnn2C` (stereo not shown) [Example 46-P2] yielded a GI50 of 10 to 100 nM.
`CN(C(=O)C(=O)Nc1cnc(N)c2c1cnn2C)C1COc2cc(Br)ccc21` (racemic) [compound 180] was tested, and the GI50 was less than 10 nM.
